Earlier results in patent publication US6723530B1, “Polynucleotides encoding proexendin, and methods and uses thereof” (Amylin Pharmaceuticals, Inc., priority 1997, dated 2004).
No end group written: not given here.

Key:
[1] = test system: guinea pig acinar cell preparations
[2] = test system: cultured islet cell lines; settings: cultured islet cell lines in vitro

| Substance | cAMP levels [1] | cAMP accumulation [2] | glucose-dependent insulin secretion [2] | insulin gene expression [2] | mode of action towards GLP-1 (agonist / antagonist) (GLP-1) |
| --- | --- | --- | --- | --- | --- |
| exendin 4 | increased | increase | stimulate | increase | strong agonist |
| exendin 4(9-39)NH3: truncated exendin 4, competitive antagonist of both exendin 4 and GLP-1 |  |  |  |  | competitive antagonist |
| truncated GLP-1[7-36)-amide: truncated mammalian GLP-1 peptide amide (HAEGTFTSDVSSYLEGQAAKEFIAWLVKGR-NH2) | increased |  |  |  |  |
